The numbers were not newly measured in patent US20120302639A1, “OMEGA 3 FORMULATIONS FOR TREATMENT OF RISK FACTORS FOR CARDIOVASCULAR DISEASE AND PROTECTION AGAINST SUDDEN DEATH” (PIVOTAL THERAPEUTICS INC., priority 2011, published 2012), which cites them from elsewhere.

For this series the following is noted: ALOGPS, as reported by Tetko et al. 2005.

Take `CC/C=C\C/C=C\C/C=C\C/C=C\C/C=C\C/C=C\CCC(=O)O` [DHA, Docosahexaenoic acid]: the “theoretical Log P” value is given as 6.83.

Turning to `CC/C=C\C/C=C\C/C=C\C/C=C\C/C=C\CCCC(=O)O` [EPA, Eicosapentaenoic acid], the “theoretical Log P” value is on record as 6.53.
